Measured values published in PMC9853512 (RSC Advances, 2023).
≈ marks a conversion by molar mass, not a printed value.

Columns and labels:
Type in all cases: cell-based
H. pylori strain SS1 = experiment: MIC, two-fold microdilution assay, H. pylori; conditions: Helicobacter pylori, SS1, 48 h, read-out: MIC H. pylori SS1
[1] = test system: E. coli strain ATCC 25922; experiment: MIC, two-fold microdilution assay, E. coli; conditions: Escherichia coli, ATCC25922, 18 h, read-out: MIC E. coli ATCC 25922
[2] = test system: C. albicans strain ATCC14053; experiment: MIC, two-fold microdilution assay, C. albicans; conditions: Candida albicans, ATCC14053, 18 h, read-out: MIC C. Albicans ATCC14053
[3] = test system: S. aureus strain ATCC 29213; experiment: MIC, two-fold microdilution assay, S. aureus; conditions: Staphylococcus aureus, ATCC29213, 18 h, read-out: MIC S. Aureus ATCC 29213

Compound | MIC (H. pylori strain SS1) [µg/mL] | MIC [1] [µg/mL] | MIC [2] [µg/mL] | MIC [3] [µg/mL]
O=C1OCCN1N=Cc1ccc([N+](=O)[O-])o1 [FZD, 3-(5-nitrofurfurylideneamino)-2-oxazolidinone] | < 0.0976 | 0.391 (≈ 1.73 µM) | > 50 | 3.12 (≈ 13.9 µM)
O=C1CN(N=Cc2ccc([N+](=O)[O-])o2)C(=O)N1 [NFT, 1-(((5-nitro-2-furanyl)methylene)amino)-2,4-imidazolidinedione] |  | 12.5 (≈ 52.5 µM) | > 50 | 25 (≈ 105 µM)
